Laboratory results reported in patent publication US7235585B2 (priority 2002, dated 2007).
Where two headings read alike, the source gives them in different places.

Tests used:
CPG2 = CPG2 (Pseudomonas sp., UniProt P06621); format: biochemical, Pseudomonas R16
[1] = tested on: WiDr cells (a colon carcinoma cell line) engineered for stable expression of β-galactosidase (β-gal); experiment: cells; format: cell-based; settings: read-out: IC50 LacZ
[2] = tested on: WiDr cells (a colon carcinoma cell line) engineered for stable expression of stCPG2(Q)3; experiment: cells; format: cell-based; settings: for IC50: read-out: IC50 stCPG2(Q)3
[3] = buffer; for T1/2 prodrug: pH 7.3
[4] = tested on: WiDr cells (a colon carcinoma cell line) engineered for stable expression of stCPG2(Q)3; settings: cited from earlier work
[5] = tested on: WiDr cells (a colon carcinoma cell line) engineered for stable expression of β-galactosidase (β-gal); settings: cited from earlier work

Chain of CPG2 (P06621 23-415): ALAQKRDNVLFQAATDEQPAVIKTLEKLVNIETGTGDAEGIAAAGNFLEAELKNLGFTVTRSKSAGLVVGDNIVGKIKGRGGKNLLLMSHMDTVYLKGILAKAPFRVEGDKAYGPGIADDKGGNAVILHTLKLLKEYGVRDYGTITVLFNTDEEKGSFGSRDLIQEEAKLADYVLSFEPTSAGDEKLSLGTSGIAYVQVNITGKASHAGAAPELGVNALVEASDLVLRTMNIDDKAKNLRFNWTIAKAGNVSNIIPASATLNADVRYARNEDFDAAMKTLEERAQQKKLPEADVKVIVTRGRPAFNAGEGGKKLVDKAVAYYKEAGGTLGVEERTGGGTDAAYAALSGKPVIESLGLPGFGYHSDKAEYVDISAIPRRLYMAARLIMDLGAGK

| SMILES | kcat (CPG2) | IC50 [1] | Degree of activation (fold) [2] | IC50 [2] | T1/2 prodrug/T1/2 drug [3] | T1/2 prodrug [3] | differentials in the WiDr cell lines compared with CMDA [2] | IC50 ([1]; Homo sapiens, WiDr) | IC50 ([2]; Homo sapiens, WiDr) | differential in the transfected WiDr cell line [2] | IC50 [4] | IC50 [5] |
| --- | --- | --- | --- | --- | --- | --- | --- | --- | --- | --- | --- | --- |
| O=C(O)CCC(NC(=O)Oc1ccc(COC(=O)Nc2ccc(N(CCCl)CCCl)cc2)cc1)C(=O)O (centres unmarked) [CP-13] | <10 s⁻¹ |  |  |  |  |  |  |  |  |  |  |  |
| CN(C(=O)OCc1ccc(OC(=O)NC(CCC(=O)O)C(=O)O)cc1)c1ccc(N(CCI)CCI)cc1 (centres unmarked) [CP-15] |  | 21.5 µM | 8.3 fold | 2.6 µM | 7.7 | 4.6 min |  |  |  |  |  |  |
| O=C(O)CCC(NC(=O)Oc1ccc(COC(=O)Nc2ccccc2N(CCI)CCI)cc1)C(=O)O (centres unmarked) [CP-8] |  | 73.3 µM | 3.9 fold | 19 µM |  | 2.1 min |  |  |  |  |  |  |
| O=C(O)CCC(NC(=O)Oc1ccc(COC(=O)Nc2ccccc2N(CCCl)CCCl)cc1)C(=O)O (centres unmarked) [CP-12] | 4.27 s⁻¹ | 38.1 µM | 1.4 fold | 28.1 µM | 11.9 | 146.3 min |  |  |  |  |  |  |
| O=C(O)CCC(NC(=O)Oc1ccc(COC(=O)Nc2ccc(N(CCI)CCI)cc2)cc1)C(=O)O (centres unmarked) [CP-9] |  | 53.6 µM | 42.5 fold | 1.3 µM | 2.0 | 0.98 min | better than those of CMDA |  |  |  |  |  |
| O=C(O)CCC(NC(=O)Oc1ccc(COC(=O)Nc2ccccc2N(CCBr)CCBr)cc1)C(=O)O (centres unmarked) [CP-10] |  | 183 µM | 1.9 fold | 95.2 µM | 3.5 | 3.47 min |  |  |  |  |  |  |
| O=C(O)CCC(NC(=O)Nc1ccc(COC(=O)Nc2ccc(N(CCBr)CCBr)cc2)cc1)C(=O)O (centres unmarked) [CP-4] |  | 205 µM | 66.6 fold | 3.1 µM | 0.4 | 0.85 min | better than those of CMDA |  |  |  |  |  |
| CS(=O)(=O)OCCN(CCOS(C)(=O)=O)c1ccccc1NC(=O)OCc1ccc(OC(=O)NC(CCC(=O)O)C(=O)O)cc1 (centres unmarked) [CP-7] |  | 208 µM | 5.2 fold | 40 µM |  | 10.8 min |  |  |  |  |  |  |
| CN(C(=O)OCc1ccc(OC(=O)NC(CCC(=O)O)C(=O)O)cc1)c1ccc(N(CCBr)CCBr)cc1 (centres unmarked) [CP-16] |  | 27.2 µM | 7.5 fold | 3.6 µM | 1.0 | 2.7 min |  |  |  |  |  |  |
| CN(C(=O)OCc1ccc(NC(=O)NC(CCC(=O)O)C(=O)O)cc1)c1ccc(N(CCI)CCI)cc1 [Compound P-1, 4-{N-[4′-bis(2″-iodoethyl)amino-phenyl]-N-methyl-carbamoyl-oxymethyl}-phenyl-carbamoyl-L-glutamic acid] |  |  | 124.0 fold |  | 6.5 |  | better than those of CMDA | 185 µM | 1.5 µM |  |  |  |
| O=C(O)CCC(NC(=O)Nc1ccc(COC(=O)Nc2ccc(N(CCI)CCI)cc2)cc1)C(=O)O (centres unmarked) [CP-2] |  | 180 µM | 101.6 fold | 1.8 µM | 1.9 | 0.97 min | better than those of CMDA |  |  |  |  |  |
| O=C(O)CCC(NC(=O)Nc1ccc(COC(=O)Nc2ccccc2N(CCI)CCI)cc1)C(=O)O (centres unmarked) [CP-1] |  | 149 µM | 49.7 fold | 3 µM |  | 2.7 min | better than those of CMDA |  |  | 50 fold |  |  |
| CN(C(=O)OCc1ccc(NC(=O)NC(CCC(=O)O)C(=O)O)cc1)c1ccc(N(CCCl)CCCl)cc1 [Compound P-3, 4-{N-[4′-bis(2″-chloroethyl)amino-phenyl]-N-methyl-carbamoyl-oxymethyl}-phenyl-carbamoyl-L-glutamic acid] | 5.50 s⁻¹ |  | 15.9 fold |  | 20.9 |  |  | 39.7 µM | 2.5 µM |  |  |  |
| O=C(O)CCC(NC(=O)Nc1ccc(COC(=O)Nc2ccccc2N(CCBr)CCBr)cc1)C(=O)O (centres unmarked) [CP-3] |  | 118 µM | 24.9 fold | 4.7 µM | 3.5 | 3.0 min |  |  |  | 25 fold |  |  |
| CN(C(=O)OCc1ccc(OC(=O)NC(CCC(=O)O)C(=O)O)cc1)c1ccc(N(CCCl)CCCl)cc1 (centres unmarked) [CP-17] | 4.32 s⁻¹ | 19.6 µM | 11.5 fold | 1.7 µM | 20.6 | 173.6 min |  |  |  |  |  |  |
| O=C(O)CCC(NC(=O)Nc1ccc(COC(=O)Nc2ccc(N(CCCl)CCCl)cc2)cc1)C(=O)O (centres unmarked) [CP-6] | 10 to 50 s⁻¹ |  |  |  |  |  |  |  |  |  |  |  |
| CN(C(=O)OCc1ccc(NC(=O)NC(CCC(=O)O)C(=O)O)cc1)c1ccc(N(CCBr)CCBr)cc1 [Compound P-2, 4-{N-[4′-bis(2″-bromoethyl)amino-phenyl]-N-methyl-carbamoyl-oxymethyl}-phenyl-carbamoyl-L-glutamic acid] |  |  | 81.4 fold |  | 1.0 |  | better than those of CMDA | 332 µM | 4.1 µM |  |  |  |
| O=C(O)CCC(NC(=O)Oc1ccc(COC(=O)Nc2ccc(N(CCBr)CCBr)cc2)cc1)C(=O)O (centres unmarked) [CP-11] |  | 99.7 µM | 38.3 fold | 2.6 µM | 0.4 | 0.9 min | better than those of CMDA |  |  |  |  |  |
| CS(=O)(=O)OCCN(CCCl)c1ccc(C(=O)N[C@@H](CCC(=O)O)C(=O)O)cc1 [CMDA, N-{4-[(2-chloroethyl)(2-mesyloxyethyl)amino]benzoyl}-L-glutamic acid] |  |  | 32.3 fold |  |  |  |  |  |  |  | 100 µM | 3230 µM |
| O=C(O)CCC(NC(=O)Nc1ccc(COC(=O)Nc2ccccc2N(CCCl)CCCl)cc1)C(=O)O (centres unmarked) [CP-5] | 2.92 s⁻¹ | 21.1 µM | 4.7 fold | 4.5 µM | 13.9 | 107.5 min |  |  |  |  |  |  |
| CS(=O)(=O)OCCN(CCCl)c1ccccc1NC(=O)OCc1ccc(OC(=O)NC(CCC(=O)O)C(=O)O)cc1 (centres unmarked) [CP-14] |  | 148 µM | 5.2 fold | 28.5 µM |  | 10.0 min |  |  |  |  |  |  |
